Holding throughout (type): in vitro ADME
Data set [1] in a line: Glucuronidation by pooled human liver microsomes (HLM), UDPGA-supplemented. The following applies: probe substrate glucuronidation. How it is done: (§1) The reaction was terminated by adding ice-cold acetonitrile. […] All experiments were performed in triplicate.
(§2) The parameter were as follow. V is the formation rate of the product. Vmax is the maximal velocity. […] Ksi is the substrate inhibition constant. […] (1) V=Vmax ×[S]/Km+[S] (2) V=Vmax ×[S]/Km + [S](1+[S]/Ksi)
(Liver microsomes are a subcellular fraction often used to study metabolism.)

For another data set, the target named is T1, UGT1A3 (Homo sapiens, UniProt P35503).
T1 construct: purchased Corning Biosciences
T1 sequence (P35503 29-534): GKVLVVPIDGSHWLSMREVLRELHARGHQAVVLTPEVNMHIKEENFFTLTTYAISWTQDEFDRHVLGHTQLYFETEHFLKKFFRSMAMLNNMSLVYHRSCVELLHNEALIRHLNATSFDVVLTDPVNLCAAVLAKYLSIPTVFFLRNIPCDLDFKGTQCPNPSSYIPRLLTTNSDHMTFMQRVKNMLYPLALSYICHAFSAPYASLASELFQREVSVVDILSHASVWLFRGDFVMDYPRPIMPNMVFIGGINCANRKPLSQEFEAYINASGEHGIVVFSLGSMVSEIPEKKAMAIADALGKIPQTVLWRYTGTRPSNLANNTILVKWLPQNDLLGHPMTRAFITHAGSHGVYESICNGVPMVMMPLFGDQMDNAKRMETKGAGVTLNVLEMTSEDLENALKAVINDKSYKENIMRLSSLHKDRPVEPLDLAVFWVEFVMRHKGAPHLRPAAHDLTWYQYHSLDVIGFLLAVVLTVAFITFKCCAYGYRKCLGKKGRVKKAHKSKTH
The data set is described as follows: Glucuronidation by expressed UGT1A3. The settings on record: human, expressed UGT1A3 (Supersome); probe substrate glucuronidation; UGT1A3. How it is done:
as §1
(§3) A series of working solutions of wushanicaritin were determined by the Acquity™ UPLC I-Class system equipped with a BEH C18 column (2.1 mm × 50 mm, 1.7 µm, Waters, Ireland, Part No. 186002350). The gradient elution program was the same as the UPLC condition of the structural identification of wushanicaritin glucuronides above. The detection wavelength was set at 270 nm, and the injection volume was 8 µL.
as §2
(§4) The contribution of individual expressed UGT enzymes to wushanicaritin glucuronidation in HLM was evaluated by the relative activity factor (RAF) approach as described in previous studies. The relative activity factor was defined as the activity ratio of HLM to an expressed UGT enzyme (Supersome) toward a probe substrate for this enzyme using Equation (3). The relative amount of wushanicaritin glucuronidation in HLM attributed to an expressed UGT enzyme was estimated by multiplying the glucuronidation activity (i.e., the intrinsic clearance) derived with this enzyme by the corresponding RAF. […] The contributions of individual UGT enzyme were calculated according to Equation (4). […]

The next data set concerns the target T2, expressed human UGT1A3 (Homo sapiens, UniProt P35503).
T2 construct: purchased Corning Biosciences
T2 sequence (P35503 29-534): T1 sequence (P35503 29-534)
Kind of data set: Glucuronidation by expressed UGT1A3. The settings on record: relative activity factor for UGT1A3 = CLint(probe, pHLM)/CLint(probe, Supersome). The method, then:
as §1, §3, §2, §4

One compound from article PMC5618632, “In Vitro Glucuronidation of Wushanicaritin by Liver Microsomes, Intestine Microsomes and Expressed Human UDP-Glucuronosyltransferase Enzymes” (International Journal of Molecular Sciences, 2017) can be followed below.

A word on the microsomal CLint: it is the capacity of the preparation to metabolise the compound, expressed as a volume cleared per time. Higher therefore signals faster metabolism. For orientation: Km means the substrate concentration at which the rate is half of its maximum. For orientation: Vmax means the rate approached at saturating substrate.

For the compound `C[C@H](CCC(=O)O)[C@H]1CC[C@H]2[C@@H]3[C@H](O)C[C@@H]4C[C@H](O)CC[C@]4(C)[C@H]3CC[C@]12C` [CDCA, chenodeoxycholic acid, reference compound], the microsomal CLint was 8.86 ± 0.74 µL/min/mg in data set [1] (human, pooled liver microsomes) and 18.5 ± 1.28 µL/min/mg at UGT1A3. The Km in data set [1] (human, pooled liver microsomes, read-out: Km) is 14.3 ± 1.16 µM. Further, in data set [1], the Vmax came to 0.13 ± 0.003 nmol/min/mg. The compound also yielded an RAF at expressed human UGT1A3 of 0.48.
